Measured values reported in patent US20160120898A1, “METHODS AND COMPOSITIONS FOR THE DISRUPTION OF BIOFILMS AND TREATMENT OF DISORDERS CHARACTERIZED BY THE PRESENCE OF BIOFILMS” (BREATHE EASY LIMITED, priority 2013, published 2016).

How the values were obtained:
[1] = Sputum pourability (viscosity) test; parameters: key to pourability: “0”=no change; “+++>” dissolved
Protocol: The ability of sodium citrate solution to decrease the viscosity of sputum samples was examined as follows.
Three different sputum samples were employed: sample 1 was of a runny consistency; sample 2 was of an intermediate consistency; and sample 3 was of a heavy consistency. 100 ul samples were measured and transferred to assay tubes in duplicate (except for sample 1 which was in short supply) and placed in a 37° C. preheated Thermomixer. 10 ul of saline (0.9% NaCl) was used as a negative control. 5 ul, 10 ul, 50 ul or 100 ul of 55 mM aqueous sodium citrate solution was added per tube and mixed (400 rpm). Each tube was checked for pourability, or viscosity, at 30 sec, 90 sec and 150 sec by observing the movement of the sputum sample along the wall of the tube. The pourability of sample 3 was also checked at 5 minutes. The pourability was graded as follows: “0”=no change to “+++>” dissolved. The results of the study are shown below in Table 2 for samples 1-3, and in FIG. 1.

[2] = Safety and toxicity of nebulized sodium citrate in healthy volunteers (FEV1, FVC); format: in vivo, human; parameters: FEV1 / FVC: unit not given here; details: for FEV1 / FVC: 5 minutes after treatment
Protocol: The safety and toxicity of aqueous sodium citrate solution was examined as follows. Treatment solutions were prepared by diluting 0 mM, 11 mM and 22 mM sodium citrate in 2 ml of water. The solutions were nebulized and administered to three healthy volunteers in successive treatments, with ascending sodium citrate dosage volumes and a 5 min break between each treatment. The forced expiratory volume in 1 sec (FEV1) and forced vital capacity (FVC) were recorded 5 minutes after each treatment.

[3] = average found with alpha dornase; cited from earlier work

## O=C([O-])CC(O)(CC(=O)[O-])C(=O)[O-].[Na+].[Na+].[Na+] [sodium citrate]
[1]; 5 ul added to 100 ul sputum, sample 1 (runny), 30 sec
  pourability: +++>
[1]; 5 ul added to 100 ul sputum, sample 1 (runny), 90 sec
  pourability: +++>
[1]; 5 ul added to 100 ul sputum, sample 1 (runny), 150 sec
  pourability: +++>
[1]; 5 ul added to 100 ul sputum, sample 1 (runny), time 0
  pourability: +++>
[1]; 5 ul added to 100 ul sputum, sample 2 (intermediate), 30 sec
  pourability: 0
[1]; 5 ul added to 100 ul sputum, sample 2 (intermediate), time 0
  pourability: 0
[1]; 5 ul added to 100 ul sputum, sample 3 (heavy), 30 sec
  pourability: 0
[1]; 5 ul added to 100 ul sputum, sample 3 (heavy), 5 min
  pourability: +>
[1]; 5 ul added to 100 ul sputum, sample 3 (heavy), time 0
  pourability: 0
[1]; 10 ul added to 100 ul sputum, sample 1 (runny), 30 sec
  pourability: +++>
[1]; 10 ul added to 100 ul sputum, sample 1 (runny), 90 sec
  pourability: +++>
[1]; 10 ul added to 100 ul sputum, sample 1 (runny), 150 sec
  pourability: +++>
[1]; 10 ul added to 100 ul sputum, sample 1 (runny), time 0
  pourability: +++>
[1]; 10 ul added to 100 ul sputum, sample 2 (intermediate), 30 sec
  pourability: 0
[1]; 10 ul added to 100 ul sputum, sample 2 (intermediate), 150 sec
  pourability: +>
[1]; 10 ul added to 100 ul sputum, sample 2 (intermediate), time 0
  pourability: 0
[1]; 10 ul added to 100 ul sputum, sample 3 (heavy), 30 sec
  pourability: 0
[1]; 10 ul added to 100 ul sputum, sample 3 (heavy), 5 min
  pourability: ++>
[1]; 10 ul added to 100 ul sputum, sample 3 (heavy), time 0
  pourability: 0
[1]; 50 ul added to 100 ul sputum, sample 1 (runny), 30 sec
  pourability: +++>
[1]; 50 ul added to 100 ul sputum, sample 1 (runny), 90 sec
  pourability: +++>
[1]; 50 ul added to 100 ul sputum, sample 1 (runny), 150 sec
  pourability: +++>
[1]; 50 ul added to 100 ul sputum, sample 1 (runny), time 0
  pourability: +++>
[1]; 50 ul added to 100 ul sputum, sample 2 (intermediate), 150 sec
  pourability: ++>
[1]; 50 ul added to 100 ul sputum, sample 2 (intermediate), time 0
  pourability: 0
[1]; 50 ul added to 100 ul sputum, sample 3 (heavy), 90 sec
  pourability: +>
[1]; 50 ul added to 100 ul sputum, sample 3 (heavy), 150 sec
  pourability: +>
[1]; 50 ul added to 100 ul sputum, sample 3 (heavy), 5 min
  pourability: +++>
[1]; 50 ul added to 100 ul sputum, sample 3 (heavy), time 0
  pourability: 0
[1]; 100 ul added to 100 ul sputum, sample 2 (intermediate), 90 sec
  pourability: ++>
[1]; 100 ul added to 100 ul sputum, sample 2 (intermediate), 150 sec
  pourability: +++>
[1]; 100 ul added to 100 ul sputum, sample 2 (intermediate), time 0
  pourability: 0
[1]; 100 ul added to 100 ul sputum, sample 3 (heavy), 5 min
  pourability: +++>
[1]; 100 ul added to 100 ul sputum, sample 3 (heavy), time 0
  pourability: 0
[1]; following incubation
  time of maximal effectiveness in reducing sputum viscosity: 5 min
[2]; Volunteer 1, 11 mM nebulized
  FEV1: 3.90
  FVC: 4.66
[2]; Volunteer 1, 22 mM nebulized
  FEV1: 3.96
  FVC: 4.82
[2]; Volunteer 2, 11 mM nebulized
  FEV1: 2.39
  FVC: 3.48
[2]; Volunteer 2, 22 mM nebulized
  FEV1: 2.28
  FVC: 3.40
[2]; Volunteer 3, 22 mM nebulized
  FEV1: 2.79
  FVC: 2.84
[2]; nebulization in three healthy volunteers
  irritation or other negative side effects: did not result in any irritation or other negative side effects

B1: alpha dornase: Pulmozyme® (dornase alfa or rhDNase), approved for treatment of CF (protein, UniProt P24855 23-282, looked up)
Deoxyribonuclease-1: LKIAAFNIQTFGETKMSNATLVSYIVQILSRYDIALVQEVRDSHLTAVGKLLDNLNQDAPDTYHYVVSEPLGRNSYKERYLFVYRPDQVSAVDSYYYDDGCEPCGNDTFNREPAIVRFFSRFTEVREFAIVPLHAAPGDAVAEIDALYDVYLDVQEKWGLEDVMLMGDFNAGCSYVRPSQWSSIRLWTSPTFQWLIPDSADTTATPTHCAYDRIVVAGMLLRGAVVPDSALPFNFQAAYGLSDQLAQAISDHYPVEVMLK
modifications: dornase alfa
notes: Pulmozyme® (dornase alfa or rhDNase), approved for treatment of CF
[3]
  improvement in lung function (FEV1), average: 9%
